Entries after “also recorded” stand apart in the source; their conditions may differ. Where two headings read alike, the source gives them in different places.
Legend:
[1] = molecular target: T1, ASGPR (Homo sapiens, UniProt P07306); assay: ASGPR binding by fluorescence polarization assay (GalNac-Cy5 probe); details: for IC50: 80 nM ASGPR, 1 nM probe, 2 hr incubation
T1 construct: purchased Acro Biosystems
T1 sequence (P07306 1-291): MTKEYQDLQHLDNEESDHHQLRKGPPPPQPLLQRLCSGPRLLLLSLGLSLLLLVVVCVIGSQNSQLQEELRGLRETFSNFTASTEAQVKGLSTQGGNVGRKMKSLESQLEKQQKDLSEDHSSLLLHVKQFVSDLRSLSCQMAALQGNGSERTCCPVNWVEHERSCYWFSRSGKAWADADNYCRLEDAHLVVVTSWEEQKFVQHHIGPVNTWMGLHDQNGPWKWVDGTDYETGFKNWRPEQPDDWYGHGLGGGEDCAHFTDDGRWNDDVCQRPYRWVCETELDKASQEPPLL
Description: Assay Procedure: ASGPR binding was measured in black 96-well plates using a fluorescence polarization assay. A fluorescent probe consisting of a tri-GalNAc linked to Cy5 (GalNac-Cy5, depicted below) was custom synthesized. Example compounds were resuspended in DMSO and 3-fold serial dilutions were made at 100× final concentrations. Binding reactions were conducted in 100 μl final volume in 20 mM Hepes (pH 7.5) 50 mM NaCl 5 mM CaCl2 0.015% Triton X-100 1% DMSO with 80 nM ASGPR (Acro Biosystems) and 1 nM probe. Fluorescence polarization was measured using λex=620 nm, λem=688 nm on an Envision plate reader (Perkin Elmer) after 2 hr incubation time. Dose responses were conducted in duplicate and normalized to the response with DMSO (high) and 1 μM reference compound 18G (low) on each plate. IC50 values were determined by fitting to 4-parameter curves in GraphPad Prism.
Example monovalent compounds (depicted below) were assessed at 100 μM as compared to a reference compound 18G (e.g., intermediate compound 18G in Example 14) as a positive control, following the assay procedure outlined in Example 68.

[2] = tested on: HepG2 cells; assay: Uptake of Alexa488-labelled target IgE bound to omalizumab (OMA) conjugates in HepG2 cells, flow cytometry; assay type: cell-based, human; details: omalizumab (anti-IgE) conjugate bound to IgE-Alexa488, equal molar ratios; 1 hour
Description: (§1) The omalizumab conjugates of Example 60 were bound to IgE-Alexa488 (prepared according to Example 62), as follows: equal molar ratios of omalizumab (anti-IgE) conjugate and IgE-Alexa488 were added in tissue culture media for 30 minutes at room temperature. The resulting anti-IgE conjugate:IgE antibody-Alexa488 compositions were added to HepG2 cells (100 k cells/50 ul per well, n=2), and Alexa488 fluorescence levels in the cells were measured at 1 hour by flow cytometry. As the fluorescently labelled target (IgE antibody) accumulates in cells, the fluorescence presents a way to measure total intracellular uptake by cells over time.
as §1, with “OMA Ab” for “The omalizumab”, “example compounds I-160-I-163 and I-141” for “Example 60”, “by adapting procedure in” for “according to”, “61),” for “62),”, “OMA(anti-IgE)” for “omalizumab (anti-IgE)”

[3] = trivalent compounds, dose response curves
[4] = trivalent compounds, read-out: IC50
[5] = monovalent compounds, read-out: IC50 (MM)

Row | Structure (SMILES) | IC50 [1, 4] | IC50 [1, 5] | other results
1 | O=C(O)CCCCCCCCCCC(=O)NC(COCCC(=O)NCCCCNC(=O)c1ccc(OCc2cn([C@H]3CO[C@H](CO)[C@H](O)[C@@H]3O)nn2)cc1)(COCCC(=O)NCCCCNC(=O)c1ccc(OCc2cn([C@H]3CO[C@H](CO)[C@H](O)[C@@H]3O)nn2)cc1)COCCC(=O)NCCCCNC(=O)c1ccc(OCc2cn([C@H]3CO[C@H](CO)[C@H](O)[C@@H]3O)nn2)cc1 [1902 (I-172), 13,13-bis((3-((4-(4-((1-((3S,4R,5R,6R)-4,5-dihydroxy-6-(hydroxymethyl)tetrahydro-2H-pyran-3-yl)-1H-1,2,3-triazol-4-yl)methoxy)benzamido)butyl)amino)-3-oxopropoxy)methyl)-1-(4-((1-((3S,4R,5R,6R)-4,5-dihydroxy-6-(hydroxymethyl)tetrahydro-2H-pyran-3-yl)-1H-1,2,3-triazol-4-yl)methoxy)phenyl)-1,8,15-trioxo-11-oxa-2,7,14-triazahexacosan-26-oic acid] | ≤ 50 nM |  | ASGPR binding affinity compared to reference compound 18G / other trivalent compounds [1, 3]: comparable affinity as reference compound 18G
2 | CC(C)(C)C(=O)N[C@H]1CO[C@H](CO)[C@H](O)[C@@H]1O [Compound 592] |  | > 50000 nM | 
3 | CC(=O)N[C@H]1[C@H](OCCCCC(=O)NCCCNC(=O)CCOCC(COCCC(=O)NCCCNC(=O)CCCCO[C@@H]2O[C@H](CO)[C@H](O)[C@H](O)[C@H]2NC(C)=O)(COCCC(=O)NCCCNC(=O)CCCCO[C@@H]2O[C@H](CO)[C@H](O)[C@H](O)[C@H]2NC(C)=O)NC(=O)CCc2cn(CCOCCOCCOCCOCCOCCOCCOCCOCCOCCOCCOCCOCCOCCOCCOCCOCCOCCOCCOCCOCCOCCOCCOCCOCCC(=O)Oc3c(F)c(F)c(F)c(F)c3F)nn2)O[C@H](CO)[C@H](O)[C@@H]1O [Compound I-137] |  |  | relative uptake activity of Alexa488 labeled-target IgE in HepG2 cells [2]: comparable activity to the reference conjugate; also recorded: comparable activity to a reference conjugate
4 | CC(=O)N[C@H]1[C@H](OCCCCC(=O)NCCCNC(=O)CCOCC(N)(COCCC(=O)NCCCNC(=O)CCCCO[C@@H]2O[C@H](CO)[C@H](O)[C@H](O)[C@H]2NC(C)=O)COCCC(=O)NCCCNC(=O)CCCCO[C@@H]2O[C@H](CO)[C@H](O)[C@H](O)[C@H]2NC(C)=O)O[C@H](CO)[C@H](O)[C@@H]1O [Compound 18G] | ≤ 50 nM | ≤ 1000 nM | 
5 | CO[C@@H]1O[C@H](CO)[C@H](O)[C@H](O)[C@H]1NC(=O)COCCc1cn(CCOCCOCCNC(=O)CCC(CCC(=O)NCCOCCOCCn2cc(CCOCC(=O)N[C@H]3[C@H](OC)O[C@H](CO)[C@H](O)[C@@H]3O)nn2)(CCC(=O)NCCOCCOCCn2cc(CCOCC(=O)N[C@H]3[C@H](OC)O[C@H](CO)[C@H](O)[C@@H]3O)nn2)NC(=O)CCCCCCCCCCC(=O)Oc2c(F)c(F)c(F)c(F)c2F)nn1 [Compound I-155] |  |  | relative uptake activity of Alexa488 labeled-target IgE in HepG2 cells [2]: less active than the 1-position linked conjugate
6 | CC(=O)N[C@H]1[C@H](OCCCCC(=O)NCCCNC(=O)CCOCC(COCCC(=O)NCCCNC(=O)CCCCO[C@@H]2O[C@H](CO)[C@H](O)[C@H](O)[C@H]2NC(C)=O)(COCCC(=O)NCCCNC(=O)CCCCO[C@@H]2O[C@H](CO)[C@H](O)[C@H](O)[C@H]2NC(C)=O)NC(=O)CCOCCOCCOCCOCCC(=O)Oc2c(F)c(F)c(F)c(F)c2F)O[C@H](CO)[C@H](O)[C@@H]1O [Compound I-145] |  |  | relative uptake activity of Alexa488 labeled-target IgE in HepG2 cells [2]: superior uptake to conjugates having a valency of 2 or 1
7 | CC(=O)N[C@H]1[C@H](OCCCCC(=O)NCCCNC(=O)CCOCC(COCCC(=O)NCCCNC(=O)CCCCO[C@@H]2O[C@H](CO)[C@H](O)[C@H](O)[C@H]2NC(C)=O)(COCCC(=O)NCCCNC(=O)CCCCO[C@@H]2O[C@H](CO)[C@H](O)[C@H](O)[C@H]2NC(C)=O)NC(=O)CCCCCCCCCCC(=O)O)O[C@H](CO)[C@H](O)[C@@H]1O [Compound I-124acid, reference compound] | > 100 nM |  | ASGPR binding affinity compared to reference compound 18G / other trivalent compounds [1, 3]: reduced ASGPR binding affinity
8 | C#CC[C@H]1O[C@H](CO)[C@H](O)[C@H](O)[C@H]1NC(C)=O [Compound 591] |  | 1000 to 50000 nM | ASGPR binding affinity among the tested monomers ([1]; monovalent compounds, dose response curves): highest affinity of the tested monomers
9 | O=C(O)CCCCCCCCCCC(=O)NC(CCC(=O)NCCOCCOCCn1cc(COc2nc(N[C@H]3CO[C@H](CO)[C@H](O)[C@@H]3O)cc(C(F)(F)F)n2)nn1)(CCC(=O)NCCOCCOCCn1cc(COc2nc(N[C@H]3CO[C@H](CO)[C@H](O)[C@@H]3O)cc(C(F)(F)F)n2)nn1)CCC(=O)NCCOCCOCCn1cc(COc2nc(N[C@H]3CO[C@H](CO)[C@H](O)[C@@H]3O)cc(C(F)(F)F)n2)nn1 [Compound 1920] | > 100 nM |  | 
10 | C#CCCCO[C@H]1CO[C@H](CO)[C@H](O)[C@@H]1O [Compound 593] |  |  | binding as a percentage of the activity of reference compound 18G ([1]; monovalent compounds at 100 μM): < 50%
11 | O=C(O)CCCCCCCCCCC(=O)NC(COCCC(=O)NCCCCNC(=O)c1cccc(OCc2cn([C@H]3CO[C@H](CO)[C@H](O)[C@@H]3O)nn2)c1)(COCCC(=O)NCCCCNC(=O)c1cccc(OCc2cn([C@H]3CO[C@H](CO)[C@H](O)[C@@H]3O)nn2)c1)COCCC(=O)NCCCCNC(=O)c1cccc(OCc2cn([C@H]3CO[C@H](CO)[C@H](O)[C@@H]3O)nn2)c1 [1901 (I-171), 13,13-bis((3-((4-(3-((1-((3S,4R,5R,6R)-4,5-dihydroxy-6-(hydroxymethyl)tetrahydro-2H-pyran-3-yl)-1H-1,2,3-triazol-4-yl)methoxy)benzamido)butyl)amino)-3-oxopropoxy)methyl)-1-(3-((1-((3S,4R,5R,6R)-4,5-dihydroxy-6-(hydroxymethyl)tetrahydro-2H-pyran-3-yl)-1H-1,2,3-triazol-4-yl)methoxy)phenyl)-1,8,15-trioxo-11-oxa-2,7,14-triazahexacosan-26-oic acid] | ≤ 50 nM |  | ASGPR binding affinity compared to reference compound 18G / other trivalent compounds [1, 3]: comparable affinity as reference compound 18G

More lines, main results first:

Row | IC50 [1, 4] | IC50 [1, 5] | Structure (SMILES) | other results
12 | 50 to 100 nM |  | NC(CCC(=O)NCCOCCOCCOCc1cn([C@H]2CO[C@H](CO)[C@H](O)[C@@H]2O)nn1)(CCC(=O)NCCOCCOCCOCc1cn([C@H]2CO[C@H](CO)[C@H](O)[C@@H]2O)nn1)CCC(=O)NCCOCCOCCOCc1cn([C@H]2CO[C@H](CO)[C@H](O)[C@@H]2O)nn1 [XB32, 4-amino-4-(1-(1-((3S,4R,5R,6R)-4,5-dihydroxy-6-(hydroxymethyl)tetrahydro-2H-pyran-3-yl)-1H-1,2,3-triazol-4-yl)-12-oxo-2,5,8-trioxa-11-azatetradecan-14-yl)-N1,N7-bis(2-(2-(2-((1-((3S,4R,5R,6R)-4,5-dihydroxy-6-(hydroxymethyl)tetrahydro-2H-pyran-3-yl)-1H-1,2,3-triazol-4-yl)methoxy)ethoxy)ethoxy)ethyl)heptanediamide] | ASGPR binding affinity compared to reference compound 18G / other trivalent compounds [1, 3]: comparable affinity as reference compound 18G
13 | ≤ 50 nM |  | NC(CCC(=O)NCCOCCOCCOCc1cn([C@H]2[C@H]3OC[C@](CO)(O3)[C@H](O)[C@@H]2O)nn1)(CCC(=O)NCCOCCOCCOCc1cn([C@H]2[C@H]3OC[C@](CO)(O3)[C@H](O)[C@@H]2O)nn1)CCC(=O)NCCOCCOCCOCc1cn([C@H]2[C@H]3OC[C@](CO)(O3)[C@H](O)[C@@H]2O)nn1 [XB40, 4-amino-4-(1-(1-((1S,2R,3R,4R,5S)-2,3-dihydroxy-1-(hydroxymethyl)-6,8-dioxabicyclo[3.2.1]octan-4-yl)-1H-1,2,3-triazol-4-yl)-12-oxo-2,5,8-trioxa-11-azatetradecan-14-yl)-N1,N7-bis(2-(2-(2-((1-((1S,2R,3R,4R,5S)-2,3-dihydroxy-1-(hydroxymethyl)-6,8-dioxabicyclo[3.2.1]octan-4-yl)-1H-1,2,3-triazol-4-yl)methoxy)ethoxy)ethoxy)ethyl)heptanediamide] | 
14 |  | 1000 to 50000 nM | O=C(O)c1cccc(OCc2cn([C@H]3CO[C@H](CO)[C@H](O)[C@@H]3O)nn2)c1 [XB20, 3-((1-((3S,4R,5R,6R)-4,5-dihydroxy-6-(hydroxymethyl)tetrahydro-2H-pyran-3-yl)-1H-1,2,3-triazol-4-yl)methoxy)benzoic acid] | 
15 |  | 1000 to 50000 nM | OC[C@H]1OC[C@H](Nc2cc(C(F)(F)F)ccn2)[C@@H](O)[C@H]1O [XB23] | 

Reference: US12258332B2, “ASGPR cell surface receptor binding compounds and conjugates” (Lycia Therapeutics, Inc., priority 2021, dated 2025)
